This test has as its target T1, renin (Homo sapiens, UniProt P00797).
T1 sequence (P00797 67-406): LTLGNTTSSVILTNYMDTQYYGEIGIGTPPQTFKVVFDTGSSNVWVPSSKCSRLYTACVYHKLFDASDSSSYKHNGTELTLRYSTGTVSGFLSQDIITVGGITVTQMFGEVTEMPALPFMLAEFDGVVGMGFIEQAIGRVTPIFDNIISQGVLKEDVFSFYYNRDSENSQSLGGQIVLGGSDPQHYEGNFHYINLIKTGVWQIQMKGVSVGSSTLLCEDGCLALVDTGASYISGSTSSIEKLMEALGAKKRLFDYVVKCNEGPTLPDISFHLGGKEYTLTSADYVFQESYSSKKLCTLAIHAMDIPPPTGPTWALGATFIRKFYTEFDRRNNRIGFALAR
The test is described as follows: in vitro renin inhibitory activity, radioimmunoassay for angiotensin I. The test is classed as biochemical. The note with it: for IC50: renin incubated two hours at 37° with angiotensinogen, values marked * are IC50, read-out: In Vitro Activity, IC50 (molar concentration causing 50% inhibition of renin activity); for inhibition at 0.01 µM: at 10^-8 molar concentration of test compound, read-out: In Vitro Activity, percent inhibition at 10^-8. On the procedure: The effectiveness of the aforementioned compounds is determined by a test for in vitro renin inhibitory activity. This activity is determined by a standard radioimmunoassay for angiotensin I. In this assay the enzyme, renin, incubated for two hours at 37° in the presence of a substrate, angiotensinogen, generates the product, angiotensin I. Test compounds are added to the incubation mixture. Relative activity is reported as the percent inhibition at the specified molar concentration or as the IC50, which is the molar concentration of test compound causing a 50% inhibition of the renin activity.

Take `CC(C)CC(=O)NC(Sc1ccccc1)C(=O)N[C@@H](Cc1c[nH]cn1)C(=O)N[C@@H](CC1CCCCC1)[C@@H](O)[C@@H](O)CC(C)C` (some centres unmarked) [IVA-NHCH(SPh)CO--HIS--CAD, IVA-NHCH(SPh)CO-HIS-CAD]: the IC50 is 1.5 nM.

With `CC[C@H](C)CNC(=O)C[C@H](O)[C@H](CC(C)C)NC(=O)[C@H](CC(C)C)NC(=O)C(NC(=O)OC(C)(C)C)SC(C)C` (some centres unmarked) [BOC--NHCH(SCH(CH3)2)CO--LEU--STA--MBA, BOC-NHCH(SCH-(CH3)2)CO-LEU-STA-MBA], under “at 10^-6 molar concentration of test compound, read-out: In Vitro Activity, percent inhibition at 10^-6”, the inhibition (as a rule, how much of the control response was suppressed) at 1 µM worked out at 23%.

With `CC[C@H](C)CNC(=O)C[C@H](O)[C@H](CC(C)C)NC(=O)[C@H](CC(C)C)NC(=O)C(NC(=O)CC(C)C)Sc1ccccc1` (single isomer, unassigned) [IVA-NHCH(SPh)CO--LEU--STA--MBA (Isomer A), IVA-NHCH(SPh)-CO-LEU-STA-MBA], the IC50 came out at 140 nM.

With `CC(C)CC(=O)NC(C(=O)N[C@@H](Cc1c[nH]cn1)C(=O)N[C@@H](CC1CCCCC1)[C@@H](O)[C@@H](O)CC(C)C)S(=O)(=O)C(C)C` (some centres unmarked) [IVA-NHCH(SO2 CH(CH3)2)CO--HIS--CAD, IVA-NHCH(SO2 CH(CH3)2)CO-HIS-CAD], the inhibition at 0.01 µM amounted to 8.2%.

For “IVA-NHCH-(SCH(CH3)2)CO-HIS-CAD (Isomer B) [IVA-NHCH(SCH(CH3)2)CO--HIS--CAD (Isomer B)]”, the IC50 stood at 5.7 nM.

Regarding “IVA-NHCH(NHPh)CO-LEU-STA-MBA [IVA-NHCH(NHPh)CO--LEU--STA--MBA]”, where the note is “at 10^-6 molar concentration of test compound”, the “In Vitro Activity, percent inhibition at 10^-6” value is 24%.

On to “IVA-NHCH(NHPh)CO-HIS-CAD [IVA-NHCH(NHPh)CO--HIS--CAD]”, for which the IC50 is 13 nM.

As to `CC(C)CC(=O)NC(SC(C)C)C(=O)N[C@@H](Cc1c[nH]cn1)C(=O)N[C@@H](CC1CCCCC1)[C@@H](O)[C@@H](O)CC(C)C` (single isomer, unassigned) [IVA-NHCH(SCH(CH3)2)CO--HIS--CAD (Isomer A), IVA-NHCH(SCH(CH3)2)CO-HIS-CAD (Isomer A)], the inhibition at 0.01 µM was 10.5%.

Consider `CC[C@H](C)CNC(=O)C[C@H](O)[C@H](CC(C)C)NC(=O)[C@H](CC(C)C)NC(=O)C(NC(=O)CC(C)C)Sc1ccccc1` (single isomer, unassigned) [IVA-NHCH(SPh)CO--LEU--STA--MBA (Mixture of diastereomers), IVA-NHCH(SPh)-CO-LEU-STA-MBA], for which the IC50 is 190 nM.

For the molecule “IVA-NHCH-(OPh)CO-HIS-CAD [IVA-NHCH(OPh)CO--HIS--CAD]”, the IC50 was determined as 3000 nM.

Turning to “IVA-NHCH(N(CH3)Ph)CO-HIS-CAD [IVA-NHCH(N(CH3)Ph)CO--HIS--CAD]”, the IC50 is 3.5 nM.

Source of the values: patent publication US5221667A, “Renin inhibiting peptides having an α-heteroatom amino acid at the P3 position” (Warner-Lambert Company, priority 1990, dated 1993).
